Like-named read-outs stand apart in the source and are kept apart here.
Tests used:
[1] = system: hand-foot syndrome induced by anti-tumor agents; experiment: Prevention of hand-foot syndrome induced by anti-tumor agents in rats, NO-NSAID ointment on hind paws (Table 2-2); assay type: in vivo, SD rats; settings: Rattus norvegicus, topical, read-out: Control rate; for responders at 1 %: ointment 1% wt; for responders at 5 %: ointment 5% wt; for responders at 3 %: ointment 3% wt
Summary of the method: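 Female SD rats (8 weeks, ~200 g; 10/group) received anti-tumour agents by daily oral gavage in Cremophor EL:ethanol 1:1 diluted ~3× with PBS. NO-NSAID or blank ointment was applied to hind paws once daily, 4 h restrained, then wiped off. Control rate = blank-group minus treated-group hand-foot syndrome incidence.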

HUVEC cells = experiment: CCK-8 cell viability: alleviation of proliferative toxicity of anti-tumor agents on HUVEC cells (Tables 7-1, 7-2); assay type: cell-based; settings: for activation at 100 µM: Homo sapiens, 24 h, percentage increase in viable cells vs anti-tumor agent alone, read-out: Response rate % (average)
Summary of the method: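 HUVEC cells were treated with anti-tumor agent (DMSO solvent) alone or combined with NO-NSAID (ethanol or water solvent), and NO-NSAID solvent controls were used for correction. After 24-48 h of culture, viability was read by CCK-8 to derive proliferative toxicity and how much NO-NSAID mitigated it.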

[2] = 120 h, Sorafenib 80 mg/kg once a day, Days 5
[3] = 432 h, Cabozantinib 50 mg/kg once a day, Days 18
[4] = 432 h, Lenvatinib 100 mg/kg twice a day, Days 18
[5] = 432 h, Nintedanib 110 mg/kg once a day, Days 18
[6] = 432 h, Regorafenib 90 mg/kg once a day, Days 18
[7] = Afatinib (10 μM), NO-NSAID 100 μM
[8] = Cabozantinib (5 μM), NO-NSAID 100 μM
[9] = Dabrafenib (10 μM), NO-NSAID 100 μM
[10] = Everolimus (5 μM), NO-NSAID 100 μM
[11] = Infigratinib (15 μM), NO-NSAID 100 μM
[12] = Lapatinib (5 μM), NO-NSAID 100 μM
[13] = Lenvatinib (10 μM), NO-NSAID 100 μM
[14] = Olmutinib (10 μM), NO-NSAID 100 μM
[15] = Regorafenib (5 μM), NO-NSAID 100 μM
[16] = Selumetinib (5 μM), NO-NSAID 100 μM
[17] = Sorafenib (5 μM), NO-NSAID 100 μM
[18] = Sunitinib (5 μM), NO-NSAID 100 μM

CC(=O)Oc1ccccc1C(=O)Oc1cccc(CO[N+](=O)[O-])c1 [Compound A2]
responders at 1 % [1, 2]: 50% | responders at 2 % ([1]; 120 h, Sorafenib 80 mg/kg once a day, ointment 2% wt, Days 5): 50% | responders at 5 % [1, 2]: 66.7% | responders at 10 % ([1]; 120 h, Sorafenib 80 mg/kg once a day, ointment 10% wt, Days 5): 80% | responders at 3 % ([1]; 360 h, Apatinib 105 mg/kg once a day, Days 15): 50% | responders at 3 % ([1]; 360 h, Encorafenib 80 mg/kg once a day, Days 15): 42.9% | responders at 3 % ([1]; 360 h, Lapatinib 120 mg/kg twice a day, Days 15): 33.3% | responders at 3 % ([1]; 360 h, Sunitinib 120 mg/kg once a day, Days 15): 42.9% | responders at 3 % ([1]; 384 h, Fruquintinib 40 mg/kg once a day, Days 16): 71.4% | responders at 3 % ([1]; 432 h, Anlotinib 20 mg/kg once a day, Days 18): 66.7% | responders at 3 % ([1]; 432 h, Axitinib 50 mg/kg once a day, Days 18): 40% | responders at 1 % [1, 3]: 28.6% | responders at 2.5 % ([1]; 432 h, Cabozantinib 50 mg/kg once a day, ointment 2.50% wt, Days 18): 42.9% | responders at 5 % [1, 3]: 66.7% | responders at 1 % [1, 4]: 42.9% | responders at 3 % [1, 4]: 42.9% | responders at 5 % [1, 4]: 71.4% | responders at 1 % [1, 5]: 33.3% | responders at 3 % [1, 5]: 50% | responders at 5 % [1, 5]: 66.7% | responders at 1 % [1, 6]: 57.1% | responders at 5 % [1, 6]: 66.7% | responders at 3 % ([1]; 480 h, Erdafitinib 45 mg/kg once a day, Days 20): 71.4% | responders at 3 % ([1]; 480 h, Olmutinib 100 mg/kg once a day, Days 20): 60% | NO-NSAID response rate % (average) (HUVEC cells; Afatinib (10 μM), NO-NSAID 0.1 μM): 15% | NO-NSAID response rate % (average) (HUVEC cells; Afatinib (10 μM), NO-NSAID 1 μM): 17% | NO-NSAID response rate % (average) (HUVEC cells; [7]): 46% | NO-NSAID response rate % (average) (HUVEC cells; Afatinib (10 μM), NO-NSAID 500 μM): 38% | NO-NSAID response rate % (average) (HUVEC cells; Cabozantinib (5 μM), NO-NSAID 0.1 μM): 3% | NO-NSAID response rate % (average) (HUVEC cells; Cabozantinib (5 μM), NO-NSAID 1 μM): 4% | NO-NSAID response rate % (average) (HUVEC cells; [8]): 10% | NO-NSAID response rate % (average) (HUVEC cells; Cabozantinib (5 μM), NO-NSAID 500 μM): 12% | NO-NSAID response rate % (average) (HUVEC cells; Dabrafenib (10 μM), NO-NSAID 0.1 μM): 23% | NO-NSAID response rate % (average) (HUVEC cells; Dabrafenib (10 μM), NO-NSAID 1 μM): 36% | NO-NSAID response rate % (average) (HUVEC cells; [9]): 49% | NO-NSAID response rate % (average) (HUVEC cells; Dabrafenib (10 μM), NO-NSAID 500 μM): 30% | NO-NSAID response rate % (average) (HUVEC cells; Everolimus (5 μM), NO-NSAID 0.1 μM): −11% | NO-NSAID response rate % (average) (HUVEC cells; Everolimus (5 μM), NO-NSAID 1 μM): −6% | NO-NSAID response rate % (average) (HUVEC cells; [10]): 33% | NO-NSAID response rate % (average) (HUVEC cells; Everolimus (5 μM), NO-NSAID 500 μM): −9% | activation at 100 µM (HUVEC cells; [7]): 46% | activation at 100 µM (HUVEC cells; Anlotinib (5 μM), NO-NSAID 100 μM): 78% | activation at 100 µM (HUVEC cells; Apatinib (10 μM), NO-NSAID 100 μM): 56% | activation at 100 µM (HUVEC cells; Axitinib (10 μM), NO-NSAID 100 μM): 77% | activation at 100 µM (HUVEC cells; [8]): 10% | activation at 100 µM (HUVEC cells; [9]): 49% | activation at 100 µM (HUVEC cells; Dacomitinib (5 μM), NO-NSAID 100 μM): 12% | activation at 100 µM (HUVEC cells; Encorafenib (5 μM), NO-NSAID 100 μM): 76% | activation at 100 µM (HUVEC cells; Erdafitinib (10 μM), NO-NSAID 100 μM): 49% | activation at 100 µM (HUVEC cells; [10]): 33% | activation at 100 µM (HUVEC cells; Famitinib (5 μM), NO-NSAID 100 μM): 31% | activation at 100 µM (HUVEC cells; Fruquintinib (10 μM), NO-NSAID 100 μM): 41% | activation at 100 µM (HUVEC cells; Gefitinib (10 μM), NO-NSAID 100 μM): 76% | activation at 100 µM (HUVEC cells; [11]): 73% | activation at 100 µM (HUVEC cells; [12]): 16% | activation at 100 µM (HUVEC cells; [13]): 34% | activation at 100 µM (HUVEC cells; [14]): 33% | activation at 100 µM (HUVEC cells; [15]): 50% | activation at 100 µM (HUVEC cells; [16]): 83% | activation at 100 µM (HUVEC cells; [17]): 56% | activation at 100 µM (HUVEC cells; [18]): 65% | activation at 100 µM (HUVEC cells; Vemurafenib (5 μM), NO-NSAID 100 μM): 54% | NO-NSAID response rate % (average) (HUVEC cells; Infigratinib (15 μM), NO-NSAID 0.1 μM): 30% | NO-NSAID response rate % (average) (HUVEC cells; Infigratinib (15 μM), NO-NSAID 1 μM): 18% | NO-NSAID response rate % (average) (HUVEC cells; [11]): 73% | NO-NSAID response rate % (average) (HUVEC cells; Infigratinib (15 μM), NO-NSAID 500 μM): 17% | NO-NSAID response rate % (average) (HUVEC cells; Lapatinib (5 μM), NO-NSAID 0.1 μM): 14% | NO-NSAID response rate % (average) (HUVEC cells; Lapatinib (5 μM), NO-NSAID 1 μM): 32% | NO-NSAID response rate % (average) (HUVEC cells; [12]): 16% | NO-NSAID response rate % (average) (HUVEC cells; Lapatinib (5 μM), NO-NSAID 500 μM): 20% | NO-NSAID response rate % (average) (HUVEC cells; Lenvatinib (10 μM), NO-NSAID 0.1 μM): 25% | NO-NSAID response rate % (average) (HUVEC cells; Lenvatinib (10 μM), NO-NSAID 1 μM): 24% | NO-NSAID response rate % (average) (HUVEC cells; [13]): 34% | NO-NSAID response rate % (average) (HUVEC cells; Lenvatinib (10 μM), NO-NSAID 500 μM): 31% | NO-NSAID response rate % (average) (HUVEC cells; Olmutinib (10 μM), NO-NSAID 0.1 μM): 24% | NO-NSAID response rate % (average) (HUVEC cells; Olmutinib (10 μM), NO-NSAID 1 μM): 24% | NO-NSAID response rate % (average) (HUVEC cells; [14]): 33% | NO-NSAID response rate % (average) (HUVEC cells; Olmutinib (10 μM), NO-NSAID 500 μM): 23% | NO-NSAID response rate % (average) (HUVEC cells; Regorafenib (5 μM), NO-NSAID 0.1 μM): 32% | NO-NSAID response rate % (average) (HUVEC cells; Regorafenib (5 μM), NO-NSAID 1 μM): 30% | NO-NSAID response rate % (average) (HUVEC cells; [15]): 50% | NO-NSAID response rate % (average) (HUVEC cells; Regorafenib (5 μM), NO-NSAID 500 μM): 36% | NO-NSAID response rate % (average) (HUVEC cells; Selumetinib (5 μM), NO-NSAID 0.1 μM): 34% | NO-NSAID response rate % (average) (HUVEC cells; Selumetinib (5 μM), NO-NSAID 1 μM): 48% | NO-NSAID response rate % (average) (HUVEC cells; [16]): 83% | NO-NSAID response rate % (average) (HUVEC cells; Selumetinib (5 μM), NO-NSAID 500 μM): 30% | NO-NSAID response rate % (average) (HUVEC cells; Sorafenib (5 μM), NO-NSAID 0.1 μM): 5% | NO-NSAID response rate % (average) (HUVEC cells; Sorafenib (5 μM), NO-NSAID 1 μM): 20% | NO-NSAID response rate % (average) (HUVEC cells; [17]): 56% | NO-NSAID response rate % (average) (HUVEC cells; Sorafenib (5 μM), NO-NSAID 500 μM): 17% | NO-NSAID response rate % (average) (HUVEC cells; Sunitinib (5 μM), NO-NSAID 0.1 μM): 13% | NO-NSAID response rate % (average) (HUVEC cells; Sunitinib (5 μM), NO-NSAID 1 μM): 7% | NO-NSAID response rate % (average) (HUVEC cells; [18]): 65% | NO-NSAID response rate % (average) (HUVEC cells; Sunitinib (5 μM), NO-NSAID 500 μM): 2%
